Assay results from patent US20220396577A1, “NOVEL SUBSTITUTED 1,3-8-TRIAZASPIRO[4,5] DECANE-2,4-DIONE COMPOUNDS AS INDOLEAMINE 2,3-DIOXYGENASE (IDO) AND/OR TRYPTOPHAN 2,3-DIOXYGENASE (TDO) INHIBITORS” (Merck Sharp & Dohme LLC, priority 2019, published 2022).

Experiments:
Assay type in all cases: biochemical
CDK2 = CDK2 (Homo sapiens, UniProt P24941); assay: Off-target kinase panel, ZLYTE: CDK2; conditions: read-out: Estimated IC50 (uM) CDK2
Source text: (§1) The activity data was obtained in a panel of 265 and 264 for compounds 1-1 and CC-1, respectively, using the ZLYTE and ADAPTA assay methods indicated in the table below.
(§2) The ZLYTE biochemical assay employs a fluorescence-based, coupled-enzyme format and is based on the differential sensitivity of phosphorylated and non-phosphorylated peptides to proteolytic cleavage. The peptide substrate is labeled with two fluorophores—one at each end—that make up a Fluorescence Resonance Energy Transfer (FRET) pair.
(§3) In the primary reaction, the kinase transfers the gamma-phosphate of ATP to a single tyrosine, serine or threonine residue in a synthetic FRET-peptide. In the secondary reaction, a site-specific protease recognizes and cleaves non-phosphorylated FRET-peptides. Phosphorylation of FRET-peptides suppresses cleavage by the Development Reagent. […] A ratiometric method, which calculates the ratio (the Emission Ratio) of donor emission to acceptor emission after excitation of the donor fluorophore at 400 nm, is used to quantitate reaction progress, as shown in the equation below. […]
(§4) Both cleaved and uncleaved FRET-peptides contribute to the fluorescence signals and therefore to the Emission Ratio. The extent of phosphorylation of the FRET-peptide can be calculated from the Emission Ratio. […]
(§5) 10. Read on fluorescence plate reader and analyze the data.

TYK2 = TYK2 (Homo sapiens, UniProt P29597); assay: Off-target kinase panel, ZLYTE: TYK2; conditions: read-out: Estimated IC50 (uM) TYK2
Source text: as §1, §2, §3, §4, §5

CDK9 (Cyclin T1) = CDK9 (Cyclin T1) (Homo sapiens, UniProt P50750); assay: Off-target kinase panel, ADAPTA: CDK9 (Cyclin T1); conditions: read-out: Estimated IC50 (uM) CDK9 (Cyclin T1)
Source text: as §1
(§6) The Adapta universal kinase assay is a homogenous, fluorescent based immunoassay for the detection of ADP. In contrast to ATP depletion assays, the Adapta assay is highly sensitive to ADP formation such that a majority of the signal change occurs in the first 10-20% conversion of ATP to ADP. This makes the Adapta universal kinase assay well suited for use with low activity kinases.
(§7) The principle of the Adapta universal kinase assay is outlined below. The assay itself can be divided into two phases: a kinase reaction phase, and an ADP detection phase. In the kinase reaction phase, all components required for the kinase reaction are added to the well, and the reaction is allowed to incubate for 60 minutes. After the reaction, a detection solution consisting of a europium labeled anti-ADP antibody, an Alexa Fluor 647 labeled ADP tracer, and EDTA (to stop the kinase reaction) is added to the assay well. […]
(§8) ADP formation is determined by calculating the emission ratio from the assay well. The emission ratio is calculated by dividing the intensity of the tracer (acceptor) emission by the intensity of the Eu (donor) emission at 615 nm as shown in the equation below. […]
(§9) 12. Read on fluorescence plate reader and analyze the data.

LRRK2 (G2019S) = LRRK2 (G2019S) (Homo sapiens, UniProt Q5S007, G2019S); assay: Off-target kinase panel, ADAPTA: LRRK2 (G2019S); conditions: read-out: Estimated IC50 (uM) LRRK2 (G2019S)
Source text: as §1, §6, §7, §8, §9

Chain of TYK2 (P29597 whole entry): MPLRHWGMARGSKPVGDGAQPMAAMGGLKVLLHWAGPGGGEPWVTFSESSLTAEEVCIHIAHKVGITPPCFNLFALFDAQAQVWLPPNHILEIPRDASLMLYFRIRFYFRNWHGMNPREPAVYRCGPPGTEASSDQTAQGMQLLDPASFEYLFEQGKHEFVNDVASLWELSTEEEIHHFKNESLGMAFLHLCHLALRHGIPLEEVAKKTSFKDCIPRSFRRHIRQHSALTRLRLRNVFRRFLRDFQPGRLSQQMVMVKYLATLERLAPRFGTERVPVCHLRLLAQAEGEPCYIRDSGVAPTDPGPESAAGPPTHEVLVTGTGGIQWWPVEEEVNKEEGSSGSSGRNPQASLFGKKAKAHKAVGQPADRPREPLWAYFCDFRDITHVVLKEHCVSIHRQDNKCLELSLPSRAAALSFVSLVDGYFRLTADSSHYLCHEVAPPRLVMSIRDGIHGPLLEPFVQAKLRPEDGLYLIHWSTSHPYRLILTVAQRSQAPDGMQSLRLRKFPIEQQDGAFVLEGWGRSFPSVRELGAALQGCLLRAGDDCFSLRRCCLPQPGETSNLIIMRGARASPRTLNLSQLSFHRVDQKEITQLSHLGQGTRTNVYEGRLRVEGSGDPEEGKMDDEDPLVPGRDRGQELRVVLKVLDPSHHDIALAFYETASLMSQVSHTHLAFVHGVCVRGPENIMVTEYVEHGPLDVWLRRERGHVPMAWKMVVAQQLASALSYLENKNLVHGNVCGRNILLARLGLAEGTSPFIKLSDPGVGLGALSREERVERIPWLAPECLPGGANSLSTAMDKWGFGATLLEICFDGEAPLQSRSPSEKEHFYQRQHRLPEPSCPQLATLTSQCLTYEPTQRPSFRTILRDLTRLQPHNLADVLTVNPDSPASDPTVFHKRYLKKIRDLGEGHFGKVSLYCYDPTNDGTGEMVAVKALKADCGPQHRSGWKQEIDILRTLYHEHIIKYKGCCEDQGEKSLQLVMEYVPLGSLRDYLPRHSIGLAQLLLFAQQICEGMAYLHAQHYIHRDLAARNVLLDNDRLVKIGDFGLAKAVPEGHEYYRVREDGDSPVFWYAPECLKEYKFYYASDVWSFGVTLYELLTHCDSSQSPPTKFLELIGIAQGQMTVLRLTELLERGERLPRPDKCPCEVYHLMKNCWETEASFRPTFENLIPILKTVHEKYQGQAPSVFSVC
Chain of LRRK2 (G2019S) (Q5S007 whole entry G2019S): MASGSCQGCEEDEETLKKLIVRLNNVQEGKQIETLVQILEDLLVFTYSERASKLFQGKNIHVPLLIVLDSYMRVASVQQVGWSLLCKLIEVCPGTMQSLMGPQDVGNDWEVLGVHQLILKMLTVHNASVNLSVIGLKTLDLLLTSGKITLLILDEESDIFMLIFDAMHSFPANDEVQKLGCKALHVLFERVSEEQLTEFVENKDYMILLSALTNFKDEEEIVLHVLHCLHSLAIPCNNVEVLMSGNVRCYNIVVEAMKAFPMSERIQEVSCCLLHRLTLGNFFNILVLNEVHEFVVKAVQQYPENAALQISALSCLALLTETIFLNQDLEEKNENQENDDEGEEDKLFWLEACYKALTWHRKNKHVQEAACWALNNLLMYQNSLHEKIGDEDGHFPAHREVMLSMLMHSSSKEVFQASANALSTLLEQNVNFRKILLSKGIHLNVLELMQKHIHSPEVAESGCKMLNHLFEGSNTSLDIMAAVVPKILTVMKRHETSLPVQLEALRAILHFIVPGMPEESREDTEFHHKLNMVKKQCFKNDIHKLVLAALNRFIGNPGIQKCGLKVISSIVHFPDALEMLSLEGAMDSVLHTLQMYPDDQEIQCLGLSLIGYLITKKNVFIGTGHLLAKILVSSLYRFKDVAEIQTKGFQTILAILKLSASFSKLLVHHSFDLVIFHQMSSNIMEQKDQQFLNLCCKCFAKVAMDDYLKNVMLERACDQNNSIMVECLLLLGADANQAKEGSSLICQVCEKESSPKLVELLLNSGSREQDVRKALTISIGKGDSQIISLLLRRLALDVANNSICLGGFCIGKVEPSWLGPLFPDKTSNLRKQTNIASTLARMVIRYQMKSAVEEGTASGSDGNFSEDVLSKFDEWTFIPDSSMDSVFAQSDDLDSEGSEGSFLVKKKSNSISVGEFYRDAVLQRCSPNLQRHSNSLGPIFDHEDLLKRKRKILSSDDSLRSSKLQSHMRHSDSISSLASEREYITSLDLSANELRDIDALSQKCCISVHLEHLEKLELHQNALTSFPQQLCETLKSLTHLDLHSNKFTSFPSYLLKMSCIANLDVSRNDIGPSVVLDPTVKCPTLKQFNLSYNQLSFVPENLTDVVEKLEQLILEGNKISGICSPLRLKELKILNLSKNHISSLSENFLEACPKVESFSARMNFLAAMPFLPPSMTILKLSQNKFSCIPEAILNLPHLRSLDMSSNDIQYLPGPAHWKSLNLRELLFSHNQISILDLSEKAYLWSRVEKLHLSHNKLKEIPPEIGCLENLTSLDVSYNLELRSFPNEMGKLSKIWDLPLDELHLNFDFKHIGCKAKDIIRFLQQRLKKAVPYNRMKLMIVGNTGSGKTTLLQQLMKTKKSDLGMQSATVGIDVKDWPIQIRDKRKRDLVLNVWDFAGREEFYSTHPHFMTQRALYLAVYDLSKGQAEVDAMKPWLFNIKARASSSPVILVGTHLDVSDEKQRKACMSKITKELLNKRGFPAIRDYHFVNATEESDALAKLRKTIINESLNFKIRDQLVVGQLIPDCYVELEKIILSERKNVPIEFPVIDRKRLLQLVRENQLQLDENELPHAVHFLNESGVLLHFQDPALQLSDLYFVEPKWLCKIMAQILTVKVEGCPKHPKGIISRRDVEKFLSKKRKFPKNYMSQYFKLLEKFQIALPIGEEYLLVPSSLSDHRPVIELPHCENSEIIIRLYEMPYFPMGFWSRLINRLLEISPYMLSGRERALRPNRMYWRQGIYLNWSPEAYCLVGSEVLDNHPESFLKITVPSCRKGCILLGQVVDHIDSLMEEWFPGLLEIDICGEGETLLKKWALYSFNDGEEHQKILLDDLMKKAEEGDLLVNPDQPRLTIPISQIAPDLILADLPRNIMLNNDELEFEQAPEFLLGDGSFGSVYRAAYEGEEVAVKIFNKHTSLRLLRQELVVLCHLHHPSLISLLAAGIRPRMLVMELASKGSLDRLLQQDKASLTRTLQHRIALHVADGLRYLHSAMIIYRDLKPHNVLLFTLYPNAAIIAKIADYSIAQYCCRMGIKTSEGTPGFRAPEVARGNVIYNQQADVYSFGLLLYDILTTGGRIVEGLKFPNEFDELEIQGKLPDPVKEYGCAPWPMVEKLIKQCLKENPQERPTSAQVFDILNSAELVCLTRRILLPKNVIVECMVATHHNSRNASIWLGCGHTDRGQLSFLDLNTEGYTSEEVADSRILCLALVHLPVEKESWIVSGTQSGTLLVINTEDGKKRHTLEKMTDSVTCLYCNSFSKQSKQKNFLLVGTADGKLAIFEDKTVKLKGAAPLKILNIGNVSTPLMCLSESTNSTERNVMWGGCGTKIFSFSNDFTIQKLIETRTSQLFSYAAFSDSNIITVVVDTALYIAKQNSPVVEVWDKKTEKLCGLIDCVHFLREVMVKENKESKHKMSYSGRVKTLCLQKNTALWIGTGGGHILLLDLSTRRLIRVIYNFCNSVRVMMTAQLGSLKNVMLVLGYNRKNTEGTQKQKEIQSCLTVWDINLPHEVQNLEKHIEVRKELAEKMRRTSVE
Chain of CDK9 (Cyclin T1) (P50750 whole entry): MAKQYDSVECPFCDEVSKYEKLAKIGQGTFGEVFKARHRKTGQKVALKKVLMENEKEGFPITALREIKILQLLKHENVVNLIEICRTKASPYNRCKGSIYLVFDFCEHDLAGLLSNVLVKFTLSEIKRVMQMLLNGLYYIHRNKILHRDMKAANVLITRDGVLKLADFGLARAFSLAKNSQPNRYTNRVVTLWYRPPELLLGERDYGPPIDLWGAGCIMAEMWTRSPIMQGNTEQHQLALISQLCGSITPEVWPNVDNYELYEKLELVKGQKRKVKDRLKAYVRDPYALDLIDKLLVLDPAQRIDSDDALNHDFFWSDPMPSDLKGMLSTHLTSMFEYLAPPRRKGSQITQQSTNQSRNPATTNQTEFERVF
Chain of CDK9 (Cyclin T1) (O60563 whole entry partner): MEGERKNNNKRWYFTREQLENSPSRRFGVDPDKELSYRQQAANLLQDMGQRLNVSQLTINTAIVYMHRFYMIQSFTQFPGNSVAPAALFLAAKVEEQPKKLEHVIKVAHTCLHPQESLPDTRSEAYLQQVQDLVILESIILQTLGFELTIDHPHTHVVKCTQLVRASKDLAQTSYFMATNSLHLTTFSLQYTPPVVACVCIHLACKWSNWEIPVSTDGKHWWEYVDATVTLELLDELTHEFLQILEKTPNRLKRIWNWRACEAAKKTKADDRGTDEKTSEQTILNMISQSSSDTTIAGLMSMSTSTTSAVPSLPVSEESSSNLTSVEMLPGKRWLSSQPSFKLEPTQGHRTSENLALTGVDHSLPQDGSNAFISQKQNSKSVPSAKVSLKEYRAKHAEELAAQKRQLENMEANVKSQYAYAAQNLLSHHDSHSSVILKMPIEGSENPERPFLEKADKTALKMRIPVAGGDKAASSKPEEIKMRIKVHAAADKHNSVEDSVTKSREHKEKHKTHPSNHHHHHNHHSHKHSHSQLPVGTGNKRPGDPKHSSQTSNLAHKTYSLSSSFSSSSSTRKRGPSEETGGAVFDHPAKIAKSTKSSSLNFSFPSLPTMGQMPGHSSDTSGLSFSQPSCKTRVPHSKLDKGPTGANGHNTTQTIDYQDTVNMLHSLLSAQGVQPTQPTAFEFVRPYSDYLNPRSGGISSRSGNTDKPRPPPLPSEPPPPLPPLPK

Row | Compound | IC50 (CDK2) | IC50 (TYK2) | IC50 (CDK9 (Cyclin T1)) | IC50 (LRRK2 (G2019S))
1 | C[C@@H]1CN(c2cc(Br)cc3[nH]ncc23)CC[C@]12NC(=O)NC2=O (single isomer, unassigned) [Compound 1-1] | > 2 µM | > 2 µM | > 2 µM | > 2 µM
2 | O=C1NC(=O)C2(CCN(c3cc(Cl)cc4[nH]ncc34)CC2)N1 [CC-1] | 1.5 µM | 2 µM | 0.15 µM | 0.94 µM
